The values that follow are results of earlier work, collected in paper PMC3845828 (Clinical cancer research : an official journal of the …, 2012).

The test system of data set [1] is cancer cells. Particulars: pretreatment of cancer cells in vitro, experimental in vivo model; ref [8].
The subject of data set [2] is RAGE / S100P. To be noted: ref [15].
Data set [3] relates to HMGB-1 binding to RAGE. Particulars: in vitro; ref [8].

For the substance “HMGB-1-derived peptide: peptide consisting of residues 150–183 of HMGB-1 (end of the B-box and its linker to the acidic tail) (KLKEKYEKDIAAYRAKGKPDAAKKGVVKAEKSKK; UniProt P09429 150-183, looked up, fragment)”, the “migration and metastasis of cancer cells pretreated with peptide” value in data set [1] is “successfully blocked their subsequent migration and their metastasis”. Further, in data set [2], the “binding and activation of RAGE by S100P” value was “blocked the binding and activation of RAGE by S100P”. The “competition with HMGB-1 binding to RAGE” value in data set [3] is given as “successfully compete with HMGB-1 binding to RAGE”.
